Measurements reported in patent publication US9605005B2, “Alkynyl alcohols and methods of use” (Genentech, Inc., priority 2013, dated 2017).
Like-named read-outs stand apart in the source and are kept apart here.

Molecular target: nuclear factor-kappa B (NF-kB)-inducing kinase (NIK) (Homo sapiens (Human), UniProt Q99558)
Assay: NIK enzyme inhibition assay (Transcreener ADP, NIK ADP-FP)
Format: biochemical
[1] = purified NIK 0.5 nM, 10 μM ATP, fluorescence polarization, read-out: NIK ADP-FP (Ki μM)

nuclear factor-kappa B (NF-kB)-inducing kinase (NIK), sequence (Q99558 whole entry): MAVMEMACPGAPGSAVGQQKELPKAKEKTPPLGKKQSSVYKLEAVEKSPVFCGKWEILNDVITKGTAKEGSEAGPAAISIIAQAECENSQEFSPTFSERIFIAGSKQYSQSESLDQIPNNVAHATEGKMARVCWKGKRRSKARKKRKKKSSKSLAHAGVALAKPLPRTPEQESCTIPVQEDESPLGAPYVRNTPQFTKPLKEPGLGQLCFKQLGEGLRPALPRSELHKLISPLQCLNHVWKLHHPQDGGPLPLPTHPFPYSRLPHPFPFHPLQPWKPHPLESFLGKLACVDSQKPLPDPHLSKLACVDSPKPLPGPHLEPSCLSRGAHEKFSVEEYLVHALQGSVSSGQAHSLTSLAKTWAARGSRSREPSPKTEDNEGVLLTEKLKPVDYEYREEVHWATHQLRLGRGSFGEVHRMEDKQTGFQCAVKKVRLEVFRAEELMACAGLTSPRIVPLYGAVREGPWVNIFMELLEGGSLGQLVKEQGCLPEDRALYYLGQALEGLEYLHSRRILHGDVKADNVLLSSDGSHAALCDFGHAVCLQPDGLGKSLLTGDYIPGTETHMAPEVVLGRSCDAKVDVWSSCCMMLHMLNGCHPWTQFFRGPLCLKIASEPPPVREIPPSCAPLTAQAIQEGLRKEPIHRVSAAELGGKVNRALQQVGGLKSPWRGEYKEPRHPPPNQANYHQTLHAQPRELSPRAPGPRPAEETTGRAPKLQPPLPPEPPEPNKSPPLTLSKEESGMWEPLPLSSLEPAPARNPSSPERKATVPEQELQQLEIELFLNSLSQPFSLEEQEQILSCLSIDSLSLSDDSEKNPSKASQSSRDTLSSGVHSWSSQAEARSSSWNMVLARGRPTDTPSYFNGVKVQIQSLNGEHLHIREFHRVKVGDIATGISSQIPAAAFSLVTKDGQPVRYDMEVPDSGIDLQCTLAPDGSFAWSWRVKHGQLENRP

SMILES	Ki [1] [nM]	Ki [nM]
CN1CC[C@@](O)(C#Cc2cccc(-n3nc(C(N)=O)c4c3[C@@H](O)CC4)c2)C1=O [Compound 168, (6S)-6-hydroxy-1-[3-[2-[(3R)-3-hydroxy-1-methyl-2-oxo-pyrrolidin-3-yl]ethynyl]phenyl]-5,6-dihydro-4H-cyclo-penta[c]pyrazole-3-carbox-amide]	33.7	–
CN1CC[C@@](O)(C#Cc2cccc(-c3nc(C(N)=O)c4ccc(C(N)=O)cn34)c2)C1=O [Compound 179, 3-[3-[2-[(3R)-3-hydroxy-1-methyl-2-oxo-pyrrolidin-3-yl]ethynyl]phenyl]imidazo [1,5-a]pyridine-1,6-dicarboxamide]	11.1	–
CN1CC[C@@](O)(C#Cc2cccc(-n3nc(C(N)=O)c4cc(-c5ncc[nH]5)ccc43)c2)C1=O [Compound 182, 1-[3-[2-[(3R)-3-hydroxy-1-methyl-2-oxo-pyrrolidin-3-yl]ethynyl]phenyl]-5-(1H-imidazol-2-yl)indazole-3-carboxamide]	1.51	–
COC1CN(c2cnc3c(c2)c(C(N)=O)nn3-c2cccc(C#C[C@]3(O)CCN(C)C3=O)c2)C1 [Compound 183, 1-[3-[2-[(3R)-3-hydroxy-1-methyl-2-oxo-pyrrolidin-3-yl]ethynyl]phenyl]-5-(3-methoxyazetidin-1-yl) pyrazolo[3,4-b]pyridine-3-carboxamide]	0.19	–
CN1CC[C@@](O)(C#Cc2cccc(-n3nc(C(N)=O)c4cnncc43)c2)C1=O [Compound 190, 1-[3-[2-[(3R)-3-hydroxy-1-methyl-2-oxo-pyrrolidin-3-yl]ethynyl]phenyl]pyrazolo [3,4-d]pyridazine-3-carboxamide]	–	6.8
CN1CC[C@@](O)(C#Cc2cccc(-c3nc(C(N)=O)c4n3CCC4)c2)C1=O [Compound 192, 3-[3-[2-[(3R)-3-hydroxy-1-methyl-2-oxo-pyrrolidin-3-yl]ethynyl]phenyl]-6,7-dihydro-5H-pyrrolo[1,2-c] imidazole-1-carboxamide]	28.1	–
C[C@H]1Cc2c(C(N)=O)nn(-c3cccc(C#C[C@]4(O)CCN(C)C4=O)c3)c2C1 [Compound 193, (5S)-1-[3-[2-[(3R)-3-hydroxy-1-methyl-2-oxo-pyrrolidin-3-yl]ethynyl]phenyl]-5-methyl-5,6-dihydro-4H-cyclopenta[c]pyrazole-3-carboxamide]	0.1	–
CN1CC[C@@](O)(C#Cc2cccc(-c3nc(C(N)=O)c(N)s3)c2)C1=O [Compound 195, 5-amino-2-[3-[2-[(3R)-3-hydroxy-1-methyl-2-oxo-pyrrolidin-3-yl]ethynyl]phenyl]thiazole-4-carboxamide]	0.05	–
CNc1nc2c(s1)c(C(N)=O)nn2-c1cccc(C#C[C@]2(O)CCN(C)C2=O)c1 [Compound 196, 1-[3-[2-[(3R)-3-hydroxy-1-methyl-2-oxo-pyrrolidin-3-yl]ethynyl]phenyl]-5-(methylamino)pyrazolo[3,4-d] thiazole-3-carboxamide]	0.05	–
Cc1sc(-c2cc(C#C[C@]3(O)CCN(C)C3=O)ccc2F)nc1C(N)=O [Compound 197, 2-[2-fluoro-5-[2-[(3R)-3-hydroxy-1-methyl-2-oxo-pyrrolidin-3-yl]ethynyl]phenyl]-5-methyl-thiazole-4-carboxamide]	0.053	–

More lines, in order of falling Ki [1], values ahead:

Ki [1] [nM]	SMILES	Ki [nM]
473	NC(=O)c1nn(-c2cccc(C#C[C@@]3(O)CCOC3=O)c2)c2ccccc12 [Compound 172, 1-[3-[2-[(3)S-3-hydroxy-2-oxo-tetrahydrofuran-3-yl]eth-ynyl]phenyl]indazole-3-carbox-amide]	–
250	CN(C)C(=O)C(O)C#Cc1cccc(-n2nc(C(N)=O)c3ccccc32)c1 (stereo not shown) [Compound 163, 1-[3-[4-(dimethyalmino)-3-hydroxy-4-oxo-but-1-ynyl]phenyl]indazole-3-carboxamide]	–
103	CN(C)C(=O)c1ccc2c(c1)c(C(N)=O)nn2-c1cccc(C#C[C@]2(O)CCN(C)C2=O)c1 [Compound 184, 1-[3-[2-[(3R)-3-hydroxy-1-methyl-2-oxo-pyrrolidin-3-yl]ethynyl]phenyl]-N5, N5-dimethyl-indazole-3,5-dicarboxamide]	–
8.12	NC(=O)c1nn(-c2cccc(C#C[C@]3(O)CCOC3=O)c2)c2ccccc12 [Compound 171, 1-[3-[2-[(3R)-3-hydroxy-2-oxo-tetrahydrofuran-3-yl]eth-ynyl]phenyl]indazole-3-carbox-amide]	–
3.27	CN(Cc1ccc2c(c1)c(C(N)=O)nn2-c1cc(C#C[C@]2(O)CCN(C)C2=O)ccn1)C(=O)CCCN [Compound 141, 5-[[4-aminobutanoyl(meth-yl)amino]methyl]-1-[4-[2-[(3R)-3-hydroxy-1-methyl-2-oxo-pyrrolidin-3-yl]ethynyl]-2-pyridyl]indazole-3-carbox-amide]	–
1.54	CN1CC[C@](O)(C#Cc2cccc(-n3nc(C(N)=O)c4c3C(=O)NC4)c2)C1=O [Compound 143, 1-[3-[2-[(3S)-3-hydroxy-1-methyl-2-oxo-pyrrolidin-3-yl]ethynyl]phenyl]-6-oxo-4,5-dihydropyrrolo[3,4-c]pyra-zole-3-carboxamide]	–
1.27	CN1CC[C@@](O)(C#Cc2cccc(-n3nc(C(N)=O)c4cccc(F)c43)c2)C1=O [Compound 176, 7-fluoro-1-[3-[2-[(3R)-3-hydroxy-1-methyl-2-oxo-pyrrolidin-3-yl]ethynyl]phenyl] indazole-3-carboxamide]	–
1.11	CN1CC[C@@](O)(C#Cc2ccc(F)c(-n3nc(C(N)=O)c4c3COC4)c2)C1=O [Compound 191, 1-[2-fluoro-5-[2-[(3R)-3-hydroxy-1-methyl-2-oxo-pyrrolidin-3-yl]ethynyl]phenyl]-4,6-dihydrofuro[3,4-c] pyrazole-3-carboxamide]	–
0.35	CN1CC[C@@](O)(C#Cc2cccc(-n3nc(C(N)=O)c4c3CCC(=O)N4)c2)C1=O [Compound 180, 1-[3-[2-[(3R)-3-hydroxy-1-methyl-2-oxo-pyrrolidin-3-yl]ethynyl]phenyl]-5-oxo-6,7-dihydro-4H-pyrazolo [4,3-b]pyridine-3-carboxamide]	–
0.29	CN1CC[C@@](O)(C#Cc2cccc(-n3nc(C(N)=O)c4c3NCCC4)c2)C1=O [Compound 198, 1-[3-[2-[(3R)-3-hydroxy-1-methyl-2-oxo-pyrrolidin-3-yl]ethynyl]phenyl]-4,5,6,7-tetrahydropyrazolo[3,4-b]pyridine-3-carboxamide]	–
0.26	CN1CC[C@@](O)(C#Cc2cccc(-n3nc(C(N)=O)c4c3CC(F)(F)C4)c2)C1=O [Compound 199, 5,5-difluoro-1-[3-[2-[(3R)-3-hydroxy-1-methyl-2-oxo-pyrrolidin-3-yl]ethynyl]phenyl]-4,6-dihydrocyclopenta [c]pyrazole-3-carboxamide]	–
0.05	C[C@@H]1Cc2c(C(N)=O)nn(-c3cccc(C#C[C@]4(O)CCN(C)C4=O)c3)c2C1 [Compound 194, (5R)-1-[3-[2-[(3R)-3-hydroxy-1-methyl-2-oxo-pyrrolidin-3-yl]ethynyl]phenyl]-5-methyl-5,6-dihydro-4H-cyclopenta[c]pyrazole-3-carboxamide]	–
